Data set [1] concerns the target ALK tyrosine kinase receptor (Homo sapiens) (UniProt Q9UM73).
Description: Inhibition of EML4 fused ALK (unknown origin) expressed in mouse BA/F3 cells assessed as cell growth inhibition measured after 72 hrs by SRB assay
Data set [2] is described as follows: Inhibition of ALK T1151-L1152 insT mutant (unknown origin) using peptide as substrate measured after 30 mins by fluorescence assay. Also on record: species or system Homo sapiens.
Data set [3] in a line: Tmax in rat at 10 mg/kg administered via oral gavage by LC/MS/MS analysis. Particulars: in vivo. The class given is ADME, organism-based.
A short description of data set [4]: Half life in rat at 10 mg/kg administered via oral gavage by LC/MS/MS analysis. The class given is ADME, organism-based. The note with it: in vivo.
A short description of data set [5]: AUCt in rat at 10 mg/kg administered via oral gavage by LC/MS/MS analysis. The format is ADME, organism-based. Particulars: in vivo.
Data set [6] is described as follows: AUC (infinity) in rat at 10 mg/kg administered via oral gavage by LC/MS/MS analysis. The format is ADME, organism-based. Also on record: dose 10 mg/kg, time infinity, route oral. Particulars: in vivo.
In a further data set the test system is Mus musculus. The data set is described as follows: Toxicity in BALB/c nu/nu mouse xenografted with human NCI-H3122 cells assessed as change in body weight at 50 mg/kg administered via oral gavage for 14 days. The format is organism-based. Particulars: in vivo, 336 h. Background: Xenograft models place foreign cells or tissue in a host animal.
The target in data set [7] is ALK tyrosine kinase receptor (Homo sapiens) (UniProt Q9UM73). The source holds these as a separate data set.
ALK tyrosine kinase receptor (Homo sapiens), sequence (Q9UM73 19-1620 limits assumed): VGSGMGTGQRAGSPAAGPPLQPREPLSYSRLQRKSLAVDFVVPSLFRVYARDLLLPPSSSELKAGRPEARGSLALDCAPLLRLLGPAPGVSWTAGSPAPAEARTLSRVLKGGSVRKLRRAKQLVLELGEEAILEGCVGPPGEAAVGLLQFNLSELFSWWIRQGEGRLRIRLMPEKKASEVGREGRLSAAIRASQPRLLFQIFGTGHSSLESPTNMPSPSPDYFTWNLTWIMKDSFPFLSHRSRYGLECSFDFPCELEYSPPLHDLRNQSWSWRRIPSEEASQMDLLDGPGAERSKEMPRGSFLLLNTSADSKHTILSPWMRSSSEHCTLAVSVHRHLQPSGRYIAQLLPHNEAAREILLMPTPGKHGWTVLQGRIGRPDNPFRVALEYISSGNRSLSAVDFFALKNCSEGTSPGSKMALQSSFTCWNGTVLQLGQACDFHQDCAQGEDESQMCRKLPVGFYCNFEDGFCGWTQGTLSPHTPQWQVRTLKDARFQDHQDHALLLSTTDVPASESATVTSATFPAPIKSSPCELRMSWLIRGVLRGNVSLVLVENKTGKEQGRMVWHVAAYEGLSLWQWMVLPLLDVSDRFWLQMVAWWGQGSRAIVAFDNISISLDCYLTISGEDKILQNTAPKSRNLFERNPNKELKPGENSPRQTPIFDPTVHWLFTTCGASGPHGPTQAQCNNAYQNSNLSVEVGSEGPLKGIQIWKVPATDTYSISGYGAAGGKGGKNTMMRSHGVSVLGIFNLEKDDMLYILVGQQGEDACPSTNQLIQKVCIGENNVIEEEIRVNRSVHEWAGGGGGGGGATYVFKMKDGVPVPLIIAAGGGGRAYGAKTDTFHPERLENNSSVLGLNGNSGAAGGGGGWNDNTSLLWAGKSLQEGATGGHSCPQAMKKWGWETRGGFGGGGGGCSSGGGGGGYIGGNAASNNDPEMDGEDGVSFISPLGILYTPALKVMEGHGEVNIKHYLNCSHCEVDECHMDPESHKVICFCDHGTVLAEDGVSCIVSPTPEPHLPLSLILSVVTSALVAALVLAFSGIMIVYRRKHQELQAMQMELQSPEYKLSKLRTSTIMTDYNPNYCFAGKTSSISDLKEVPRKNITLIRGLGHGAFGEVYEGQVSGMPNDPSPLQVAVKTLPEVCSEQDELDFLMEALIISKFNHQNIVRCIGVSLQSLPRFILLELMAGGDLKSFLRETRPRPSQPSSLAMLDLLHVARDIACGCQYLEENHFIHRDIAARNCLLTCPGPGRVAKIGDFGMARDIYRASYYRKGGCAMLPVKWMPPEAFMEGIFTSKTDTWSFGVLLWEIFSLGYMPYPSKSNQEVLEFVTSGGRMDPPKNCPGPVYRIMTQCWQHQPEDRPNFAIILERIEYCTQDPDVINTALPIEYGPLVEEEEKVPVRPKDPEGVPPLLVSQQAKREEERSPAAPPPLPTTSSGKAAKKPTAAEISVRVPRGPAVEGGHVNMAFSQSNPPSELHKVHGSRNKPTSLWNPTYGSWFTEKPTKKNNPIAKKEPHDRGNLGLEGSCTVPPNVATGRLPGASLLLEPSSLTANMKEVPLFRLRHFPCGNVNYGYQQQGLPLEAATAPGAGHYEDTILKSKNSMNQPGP
Description: Inhibition of EML4 fused ALK in human NCI-H3122 cells assessed as cell growth inhibition measured after 72 hrs by SRB assay
In data set [8] the target is ALK tyrosine kinase receptor (Homo sapiens, UniProt Q9UM73, G1202R). The data set is described as follows: Inhibition of ALK G1202R mutant (unknown origin) using peptide as substrate measured after 30 mins by fluorescence assay.
ALK tyrosine kinase receptor (Homo sapiens, UniProt Q9UM73, G1202R), sequence (Q9UM73 19-1620 G1202R limits assumed): as the sequence (Q9UM73 19-1620 limits assumed) above, with G1184R counted along it
Data set [9] deals with ALK tyrosine kinase receptor (Homo sapiens, UniProt Q9UM73, G1269A). The data set is described as follows: Inhibition of ALK G1269A mutant (unknown origin) using peptide as substrate measured after 30 mins by fluorescence assay.
ALK tyrosine kinase receptor (Homo sapiens, UniProt Q9UM73, G1269A), sequence (Q9UM73 19-1620 G1269A limits assumed): as the sequence (Q9UM73 19-1620 limits assumed) above, with G1251A counted along it
Data set [10] deals with ALK tyrosine kinase receptor (Homo sapiens, UniProt Q9UM73, F1174L). Description: Inhibition of ALK F1174L mutant (unknown origin) using peptide as substrate measured after 30 mins by fluorescence assay.
ALK tyrosine kinase receptor (Homo sapiens, UniProt Q9UM73, F1174L), sequence (Q9UM73 19-1620 F1174L limits assumed): as the sequence (Q9UM73 19-1620 limits assumed) above, with F1156L counted along it
Data set [11] concerns the target ALK tyrosine kinase receptor (Homo sapiens, UniProt Q9UM73, C1156Y). Description: Inhibition of ALK C1156Y mutant (unknown origin) using peptide as substrate measured after 30 mins by fluorescence assay.
A short description of data set [12]: Cmax in rat at 10 mg/kg administered via oral gavage by LC/MS/MS analysis. Also on record: dose 10 mg/kg, route oral. The format is ADME, organism-based. The note with it: in vivo.

ALK tyrosine kinase receptor (Homo sapiens, UniProt Q9UM73, C1156Y), sequence (Q9UM73 19-1620 C1156Y limits assumed): as the sequence (Q9UM73 19-1620 limits assumed) above, with C1138Y counted along it

`COc1cc(CNC=O)c(C)cc1Nc1ncc(Cl)c(Nc2ccccc2S(=O)(=O)C(C)C)n1` showed a CC50 in data set [1] of 15 nM.
Regarding `Cc1cc(Nc2ncc(Cl)c(Nc3ccccc3S(=O)(=O)C(C)C)n2)c(OC(C)C)cc1C1CCNCC1` [CERITINIB], the IC50 (in general, the concentration at which inhibition is half-maximal) in [2] stood at 0.63 nM. The time of peak concentration (Tmax) (in general, the time at which the peak concentration occurs) in data set [3] was 7.33 h. The half-life (commonly the time needed for the level to fall by half in the phase considered) in data set [4] was 10.3 h. In data set [5], the AUC(0-t) (as a rule, exposure summed from dosing to a finite time, without extrapolation to infinity) is 1380 ng·h/mL. Besides, in [6], the AUC(0-inf) (commonly the area under the concentration-time curve extrapolated to infinity) was determined as 2650 ng·h/mL. In addition, the Activity result in the data set with Mus musculus is “Non-Toxic”.
With `COc1cc(C(C)(C)N)c(C)cc1Nc1ncc(Cl)c(Nc2ccccc2S(=O)(=O)C(C)C)n1`, the CC50 in [7] and in data set [1] was 12 nM throughout.
Take `COc1cc(C(C)(C)NC=O)c(C)cc1Nc1ncc(Cl)c(Nc2ccccc2S(=O)(=O)C(C)C)n1`: the CC50 in data set [7] was 52 nM; in data set [1], 24 nM.
The corresponding values for `COc1cc(CCNC=O)c(C)cc1Nc1ncc(Cl)c(Nc2ccccc2S(=O)(=O)C(C)C)n1` are 68 nM and 60 nM.
Turning to `COc1cc(C(C)(C)CN)c(C)cc1Nc1ncc(Cl)c(Nc2ccccc2S(=O)(=O)C(C)C)n1`, the CC50 in data set [7] is 53 nM; in data set [1], 36 nM.
The matching figures for `CNCCc1cc(OC)c(Nc2ncc(Cl)c(Nc3ccccc3S(=O)(=O)C(C)C)n2)cc1C`: 20 nM and 13 nM.
As for `COc1cc(CCN)c(C)cc1Nc1ncc(Cl)c(Nc2ccccc2S(=O)(=O)C(C)C)n1`, the CC50 in data set [7] worked out at 60 nM; in data set [1] it was 68 nM.
The matching figures for `COc1cc(C(C)(C)C#N)c(C)cc1Nc1ncc(Cl)c(Nc2ccccc2S(=O)(=O)C(C)C)n1`: 250 nM and 250 nM.
`COc1cc(CN(C)C)c(C)cc1Nc1ncc(Cl)c(Nc2ccccc2S(=O)(=O)C(C)C)n1`: the results for the CC50 in data set [7] and in data set [1] were 37 nM and 21 nM, respectively.
The corresponding values for `COc1cc(C(C)(C)CNC=O)c(C)cc1Nc1ncc(Cl)c(Nc2ccccc2S(=O)(=O)C(C)C)n1` are 63 nM and 38 nM.
The matching figures for `CNC(C)(C)c1cc(OC)c(Nc2ncc(Cl)c(Nc3ccccc3S(=O)(=O)C(C)C)n2)cc1C`: 29 nM and 15 nM.
In the case of `COc1cc(CCN(C)C)c(C)cc1Nc1ncc(Cl)c(Nc2ccccc2S(=O)(=O)C(C)C)n1`, the IC50 in data set [8] was 1.8 nM; in data set [9] it was 0.4 nM; in data set [2], 0.63 nM; in data set [10], 0.56 nM; in data set [11], 1.1 nM. Further, the Tmax in [3] was determined as 4 h. In addition, the Cmax – broadly, the highest concentration seen after dosing – in data set [12] was 263 ng/mL. In data set [4], this compound had a half-life of 7.48 h. This compound also registered an AUC(0-t) in data set [5] of 3750 ng·h/mL. The compound further displayed an AUC(0-inf) in [6] of 4250 ng·h/mL. For the same compound, the Activity entry in the data set with Mus musculus is “Non-Toxic”. In addition, the CC50 in [7] came to 13 nM; in data set [1], 10 nM.
As for `COc1cc(C(C)(C)CN(C)C)c(C)cc1Nc1ncc(Cl)c(Nc2ccccc2S(=O)(=O)C(C)C)n1`, the figures for the CC50 in [7] and in data set [1] were 26 nM and 14 nM, respectively.
The corresponding values for `COc1cc(CC#N)c(C)cc1Nc1ncc(Cl)c(Nc2ccccc2S(=O)(=O)C(C)C)n1` are 74 nM and 61 nM.
The matching figures for `CNCc1cc(OC)c(Nc2ncc(Cl)c(Nc3ccccc3S(=O)(=O)C(C)C)n2)cc1C`: 25 nM and 15 nM.
The matching figures for `COc1cc(C(C)(C)N(C)C)c(C)cc1Nc1ncc(Cl)c(Nc2ccccc2S(=O)(=O)C(C)C)n1`: 35 nM and 20 nM.
Regarding `CNCC(C)(C)c1cc(OC)c(Nc2ncc(Cl)c(Nc3ccccc3S(=O)(=O)C(C)C)n2)cc1C`, the values for the CC50 in [7] and in [1] were 41 nM and 19 nM, respectively.
